Usually half-life stands for how long it takes for the measured level to halve. Broadly, the Tmax is the time at which the peak concentration occurs. By Cmax is commonly meant the highest concentration seen after dosing.

Where two headings read alike, the source gives them in different places.

The nature of data set [1]: Pharmacokinetics in dog (i.v. and p.o.). The following applies: for bioavailability: p.o. 5 mg·kg^−1 vs i.v. 1 mg·kg^−1, mean ± SD. It is filed as in vivo. On the procedure:
Pharmacokinetic studies were carried out at Charles River, UK. For both i.v. and p.o. administration, compounds were prepared in 0.9% saline containing 2% DMSO (v^.v^‐1) and 38% PEG400 (v^.v^‐1). Solutions were passed through 0.22 μm filters prior to administration. Three Beagle dogs each received a single i.v. injection of compound 4 at a dose level of 1 mg·kg^−1. Following a washout period of 1 week, each animal received a single p.o. dose of compound 4 at a dose level of 5 mg·kg^−1.
After a washout period of 6 weeks, the same three dogs each received a single i.v. injection of compound 7 at a dose level of 1 mg·kg^−1. Following a washout period of 1 week, each animal received a single p.o. dose of compound 7 at a dose level of 5 mg·kg^−1.
Plasma samples were obtained up to 24 h post dose administration, and the concentration of each test item in plasma was determined using LC–MS/MS. Pharmacokinetic parameters were derived by non‐compartmental analysis using WinNonLin pharmacokinetic software.

Data set [2] in a line: Plasma protein binding, human plasma. The class given is in vitro ADME. How it is done: Plasma protein binding was determined using pooled human plasma according to the method described in WO2011135276 (Webster et al., 2011a).
A short description of data set [3]: Tissue exposure measurements in rats (plasma and brain). The following applies: rat. The class given is in vivo. On the procedure:
The circulating plasma levels and tissue distribution of compounds were determined according to the method described in WO2011135276 (Webster et al., 2011a). Animals were group‐housed, had free access to food and water and were maintained in accordance with UK Home Office regulations. The animal work was conducted under UK Home Office Project Licence no. PPL 60/3915.
Compounds were prepared in 0.9% saline containing 2% DMSO (v^.v^‐1) and 38% PEG400 (v^.v^‐1) and administered to male Sprague Dawley rats by oral gavage such that the final concentration of compound was 10 mg·kg^−1. Rats (n = 3 per time point) were killed by decapitation at 1, 4 and 6 h post dosing, and trunk blood and tissues (liver, adipose and brain) were excised. Blood samples at 0.5 and 2 h post dosing were taken by a tail nick from the 4 and 6 h rats respectively.
Compounds were triple extracted from plasma (prepared from blood by a high speed centrifugation step) and spiked with 1 μg of a standard compound using ethyl acetate. Extracts were dried under nitrogen and re‐suspended in 60% methanol/40% ammonium acetate (5 mM).
A known weight of tissue was homogenized in 3 volumes of Krebs buffer. The compound was triple extracted with ethyl acetate from the supernatant of a low speed spin spiked with […] of a standard compound. Extracts were dried under nitrogen and re‐suspended in 60% methanol/40% ammonium acetate (5 mM).
Samples from plasma and tissue were analysed by TSQ Quantum Discovery Tandem Mass Spectrometer and Surveyor Liquid Chromatogram (Thermo, Hemel‐Hempstead, UK). Then 10 μL of each sample was injected in a mobile phase consisting of 60% methanol/40% ammonium acetate (5 mM) at a flow rate of 0.5 mL·min^−1. The column used was a BDS hypersil C18, 50 × 2.1 mm with a 5 μm particle size.
Each compound was tuned with a spray voltage of 3000 V and a capillary temperature of 300°C, and values for tube lens, CID and product ions were determined. The peak area for each compound and for the internal standard was determined, and the concentration of compound ^. g^‐1 of tissue or mL^‐1 of plasma was calculated by comparison of the peak area ratio to a standard curve.

Another data set addresses T1, human 11β‐HSD1 (Homo sapiens, UniProt P28845).
T1 construct: a construct containing the full‐length gene coding for the human 11β‐HSD1 enzyme; expressed in transfected cells; host or cells: HEK293
The data set is described as follows: Inhibition of human 11β-HSD1 in stably transfected HEK293 cells. It is filed as cell-based. How it is done:
Inhibition of human 11β‐HSD1 was determined in HEK293 cells stably transfected with a construct containing the full‐length gene coding for the human 11β‐HSD1 enzyme according to the protocol described by Sooy et al., 2010.

A short description of data set [4]: Plasma protein binding, dog plasma. The class given is in vitro ADME. The following applies: mean ± SD [n].
The subject of data set [5] is HPA axis hormones and steroids. The experiment in a line: Multiple ascending dose study, HPA axis hormones and steroids. The class given is in vivo. The following applies: human, not significant vs placebo. On the procedure:
A double‐blind, randomized, placebo‐controlled multiple ascending dose study was carried out at Linear Clinical Research Ltd, Nedlands, Australia. Each cohort consisted of eight healthy male subjects. Each subject received UE2343 or placebo twice daily (b.i.d ) (12 hourly) in the fed state for 9 days (Day 1 to Day 9) and once on the morning of Day 10 (19 doses in total). Dose cohorts were 10, 20 and 35 mg. Dose escalation and selection was dependent upon satisfactory review of the blinded safety (up to Day 17 ± 2) and plasma pharmacokinetics (up to Day 12) data from the preceding cohort. Safety, pharmacokinetic and pharmacodynamic assessments were made at pre‐determined time‐points during each part of the study.
Laboratory evaluation of clinical safety parameters was carried out using standard validated methods. Measurement of plasma pharmacodynamic markers [adrenocorticotropic hormone (ACTH), cortisol, 4‐androstenedione, testosterone and dehydroepiandrosterone sulphate (DHEA‐s)] was carried out using commercially available kits. Each method was fully validated prior to analysis. Urinary steroid metabolites were measured according to established methods (Boonen et al., 2013). UE2343 levels in plasma, urine and CSF was determined by LC–MS/MS using fully validated methods.
The data and statistical analysis comply with the recommendations on experimental design and analysis in pharmacology (Curtis et al., 2015). Levels of probability, P < 0.05 were deemed to constitute the threshold for statistical significance. Pharmacokinetic parameters, except Tmax (time of maximum observed drug concentration), are given as mean ± coefficient of variation (CV%). Tmax is given as median ± range. For each of the pharmacodynamic parameters [ACTH, cortisol, adrenal androgens, tetrahydrocortisols (THFs)/tetrahydrocortisone (THE) ratio], the maximum % change from baseline for each subject was subjected to ANOVA. For selected data, an additional covariate factor for the baseline was also included in the ANOVA/analysis of covariance (ANCOVA) model. […]

T1 sequence (P28845 whole entry): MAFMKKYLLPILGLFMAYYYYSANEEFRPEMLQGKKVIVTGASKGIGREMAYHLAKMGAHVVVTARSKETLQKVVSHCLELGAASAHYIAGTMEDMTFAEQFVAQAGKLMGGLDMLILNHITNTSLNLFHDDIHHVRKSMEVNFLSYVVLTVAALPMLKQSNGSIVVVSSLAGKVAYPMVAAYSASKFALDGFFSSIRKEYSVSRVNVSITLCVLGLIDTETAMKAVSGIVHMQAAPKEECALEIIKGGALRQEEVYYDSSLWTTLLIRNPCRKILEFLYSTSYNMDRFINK

Turning to `O=C(c1csc(-c2cn[nH]c2)c1)N1C2CCC1CC(O)(c1ncccn1)C2` (centres unmarked) [compound 4], the clearance in data set [1] (Beagle, plasma, iv, i.v. 1 mg·kg^−1, mean ± SD) is 4.68 ± 1.12 mL/min/kg. The same molecule had a half-life in data set [1] (Beagle, plasma, mean ± SD) of 167 ± 50.4 min. The Tmax in data set [1] (Beagle, plasma, oral, 5 mg·kg^−1) turned out to be 1 h. Also, the bioavailability in data set [1] (Beagle, plasma, oral) was > 100%; in data set [1] (Beagle, plasma, po), 170 ± 40%. The Cmax in data set [1] (Beagle, plasma, po, p.o. 5 mg·kg^−1, mean ± SD) is 4590 ± 546 ng/mL; in data set [3] (male, Sprague Dawley, plasma, po, 10 mg/kg, 10 mg·kg^−1 oral gavage, mean ± SD), 1540 ± 657 ng/mL. Moreover, the “oral exposure relative to compound 7” value in data set [1] (p.o., in words) is “greater than threefold higher”. Besides, the “Plasma protein binding (% unbound), human” value in data set [2] (human plasma, mean ± SD [n]) is 30 ± 2 [2] % unbound. In addition, the fraction unbound in data set [2] (human, pooled human plasma, read-out: bound to plasma proteins (converted)) is 0.3. Moreover, the Kp came to 0.43 in data set [3] (male, Sprague Dawley, brain (relative to free plasma), oral, 10 mg·kg^−1, rat plasma protein binding taken into account, read-out: brain : plasma free ratio); 0.11 in data set [3] (male, Sprague Dawley, brain and plasma, 10 mg·kg^−1 oral gavage, read-out: Brain : plasma ratio). Moreover, the “level in brain as % of the free plasma concentration” value in data set [3] amounted to 43%. For the same molecule, the “Brain Cmax” value in data set [3] (10 mg·kg^−1 oral gavage, mean ± SD) was determined as 173 ± 80 ng/mL. In addition, the IC50 on human 11β‐HSD1 (HEK293 cell IC50 in ng·mL^−1, read-out: IC50 value (11β‐HSD1) expressed as mass concentration (converted)) was 23.6 nM; on human 11β‐HSD1 (HEK293 cells, mean ± SD [n], read-out: Human 11β‐HSD1 IC50 in HEK293 cells), 24 ± 15 nM. In data set [4], the “Plasma protein binding (% unbound), dog” value is 44 ± 0 [1] % unbound. Besides, the “mean maximum percentage change in ACTH (from baseline)” value in data set [5] (10 mg b.i.d) came to 222%; in data set [5] (20 mg b.i.d) it was 195%; in data set [5] (35 mg b.i.d) it was 230%.

(Values after article PMC5301048, “Selection and early clinical evaluation of the brain‐penetrant 11β‐hydroxysteroid dehydrogenase type 1 (11β‐HSD1) inhibitor UE2343 (Xanamem™)” (British Journal of Pharmacology, 2017).)
